Patent US20190330275A1 (priority 2016, published 2019)
Values joined by “and” are separate entries in the source; they are usually repeats but may differ in a detail not shown here. Equal entries are not always repeated. Peptide text beside a SMILES is read from it.

Legend:
rat α3β4 nAChR = rat α3β4 nAChR (Rattus norvegicus, UniProt P04757+P12392); assay: cell-based; details: for IC50: α3β4 IC50 (half-blocking dose)
rat α6/α3β4 nAChR = rat α6/α3β4 nAChR (Rattus norvegicus, UniProt P04757+P12392+P43143); assay: cell-based
Sequence of rat α6/α3β4 nAChR (P04757 whole entry, looked up): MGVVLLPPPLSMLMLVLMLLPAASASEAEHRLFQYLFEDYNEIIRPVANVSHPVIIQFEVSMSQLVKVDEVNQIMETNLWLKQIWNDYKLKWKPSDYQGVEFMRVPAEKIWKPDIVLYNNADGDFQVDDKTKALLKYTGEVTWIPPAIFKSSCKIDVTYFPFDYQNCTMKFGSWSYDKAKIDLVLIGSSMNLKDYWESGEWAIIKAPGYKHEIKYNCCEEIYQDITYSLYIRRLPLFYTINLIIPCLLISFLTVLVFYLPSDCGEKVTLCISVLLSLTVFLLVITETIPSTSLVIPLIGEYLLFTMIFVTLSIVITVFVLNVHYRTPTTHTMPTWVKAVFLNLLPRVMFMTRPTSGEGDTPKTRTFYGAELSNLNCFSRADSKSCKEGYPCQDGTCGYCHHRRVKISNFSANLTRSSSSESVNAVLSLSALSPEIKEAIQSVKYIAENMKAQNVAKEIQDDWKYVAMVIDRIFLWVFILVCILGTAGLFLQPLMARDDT
Sequence of rat α6/α3β4 nAChR (P12392 whole entry, looked up): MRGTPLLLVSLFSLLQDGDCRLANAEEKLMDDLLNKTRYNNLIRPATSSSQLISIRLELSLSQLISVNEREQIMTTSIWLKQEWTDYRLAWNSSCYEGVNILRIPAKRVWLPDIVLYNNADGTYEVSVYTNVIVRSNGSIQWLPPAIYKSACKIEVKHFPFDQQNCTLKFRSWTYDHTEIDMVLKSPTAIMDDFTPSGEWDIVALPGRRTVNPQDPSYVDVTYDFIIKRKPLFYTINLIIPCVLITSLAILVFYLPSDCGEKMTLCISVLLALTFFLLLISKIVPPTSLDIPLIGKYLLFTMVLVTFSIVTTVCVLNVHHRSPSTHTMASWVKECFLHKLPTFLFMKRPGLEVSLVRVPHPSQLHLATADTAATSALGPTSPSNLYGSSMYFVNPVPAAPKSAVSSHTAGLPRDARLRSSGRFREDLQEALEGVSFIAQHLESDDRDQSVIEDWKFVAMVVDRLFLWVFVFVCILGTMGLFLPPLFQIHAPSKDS
Sequence of rat α6/α3β4 nAChR (P43143 whole entry, looked up): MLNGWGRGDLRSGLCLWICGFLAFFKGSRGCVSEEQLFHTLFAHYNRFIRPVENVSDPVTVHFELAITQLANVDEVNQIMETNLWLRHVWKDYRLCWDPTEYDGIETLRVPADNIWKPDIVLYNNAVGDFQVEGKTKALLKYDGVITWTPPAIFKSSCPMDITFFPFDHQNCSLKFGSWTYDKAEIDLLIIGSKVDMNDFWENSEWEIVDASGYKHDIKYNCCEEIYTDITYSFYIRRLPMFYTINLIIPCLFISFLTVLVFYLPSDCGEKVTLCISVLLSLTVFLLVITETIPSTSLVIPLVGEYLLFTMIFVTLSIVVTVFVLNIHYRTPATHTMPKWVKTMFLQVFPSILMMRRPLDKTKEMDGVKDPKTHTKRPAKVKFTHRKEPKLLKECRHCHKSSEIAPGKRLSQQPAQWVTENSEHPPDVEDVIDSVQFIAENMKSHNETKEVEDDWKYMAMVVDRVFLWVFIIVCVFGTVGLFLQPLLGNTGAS

[1] = α6/α3β4 IC50 (half-blocking dose)

Sequence of rat α3β4 nAChR (P04757 26-499 limits assumed): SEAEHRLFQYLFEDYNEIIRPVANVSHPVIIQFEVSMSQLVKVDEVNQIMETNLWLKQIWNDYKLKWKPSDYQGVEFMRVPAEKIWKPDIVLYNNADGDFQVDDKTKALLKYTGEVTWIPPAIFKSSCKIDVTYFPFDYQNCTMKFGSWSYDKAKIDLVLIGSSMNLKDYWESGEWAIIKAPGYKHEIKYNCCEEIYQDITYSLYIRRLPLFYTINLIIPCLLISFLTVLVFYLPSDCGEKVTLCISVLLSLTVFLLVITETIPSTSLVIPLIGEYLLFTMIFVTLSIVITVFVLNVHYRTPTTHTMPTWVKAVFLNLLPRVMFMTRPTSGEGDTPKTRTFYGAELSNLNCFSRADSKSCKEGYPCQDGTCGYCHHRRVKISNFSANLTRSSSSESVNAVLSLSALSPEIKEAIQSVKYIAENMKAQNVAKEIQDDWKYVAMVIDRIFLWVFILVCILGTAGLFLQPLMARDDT
Sequence of rat α3β4 nAChR (P12392 21-495 limits assumed): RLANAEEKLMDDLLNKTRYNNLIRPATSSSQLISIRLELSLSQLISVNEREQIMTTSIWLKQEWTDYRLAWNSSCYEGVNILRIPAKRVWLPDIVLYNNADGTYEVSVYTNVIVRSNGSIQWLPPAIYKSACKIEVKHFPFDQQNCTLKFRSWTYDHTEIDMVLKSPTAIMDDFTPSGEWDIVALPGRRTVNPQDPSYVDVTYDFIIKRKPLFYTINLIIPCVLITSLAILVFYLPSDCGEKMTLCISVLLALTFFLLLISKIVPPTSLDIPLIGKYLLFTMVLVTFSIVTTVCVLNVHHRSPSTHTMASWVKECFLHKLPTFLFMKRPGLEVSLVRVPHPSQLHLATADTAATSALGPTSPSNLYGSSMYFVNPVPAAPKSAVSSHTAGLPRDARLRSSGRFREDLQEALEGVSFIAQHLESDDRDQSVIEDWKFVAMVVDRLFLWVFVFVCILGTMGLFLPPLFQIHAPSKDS

Compound	IC50 (rat α3β4 nAChR) [nM]	IC50 (rat α6/α3β4 nAChR; [1]) [nM]	α3β4 IC50 ratio (rat α3β4 nAChR)	IC50 ratio of α6/α3β4 vs. α3β4 (Discrimination) (rat α6/α3β4 nAChR)	α6/α3β4 IC50 ratio (rat α6/α3β4 nAChR)	other results
CC[C@H](C)[C@@H]1NC(=O)[C@@H]2CCCN2C(=O)[C@H](CO)NC(=O)[C@H](CCSC)NC(=O)[C@H](C)NC(=O)[C@H](CO)NC(=O)[C@@H]2CSSC[C@H](NC(=O)CN)C(=O)N[C@@H](CSSC[C@@H](C(N)=O)NC1=O)C(=O)N[C@@H](CO)C(=O)N[C@@H](Cc1c[nH]cn1)C(=O)N1CCC[C@H]1C(=O)N[C@@H](C(C)C)C(=O)N2 [TxID, reference compound]						blocking of rat α3β4 nAChRs current (rat α3β4 nAChR): strong blocking activities; current blocked (rat α3β4 nAChR): 97% and 67%; elution time for current to return to the level of control current (rat α3β4 nAChR): ≤ 2 min; current blocked (rat α6/α3β4 nAChR): 85% and 46%; discrimination degree between α3β4 and α6β4* nAChRs (rat α6/α3β4 nAChR): 9.3 times
CC[C@H](C)[C@@H]1NC(=O)[C@@H]2CCCN2C(=O)[C@H](CO)NC(=O)[C@H](CCSC)NC(=O)[C@H](C)NC(=O)[C@H](CO)NC(=O)[C@H](CCCNC(=N)N)NC(=O)[C@@H]2CSSC[C@H](NC(=O)CN)C(=O)N[C@@H](CSSC[C@@H](C(N)=O)NC1=O)C(=O)N[C@@H](CO)C(=O)N[C@@H](Cc1c[nH]cn1)C(=O)N1CCC[C@H]1C(=O)N[C@@H](C(C)C)C(=O)N2 [TxID[9R]] (HELM PEPTIDE1{G.C.C.S.H.P.V.C.R.S.A.M.S.P.I.C.[am]}$PEPTIDE1,PEPTIDE1,2:R3-8:R3|PEPTIDE1,PEPTIDE1,3:R3-16:R3$$$V2.0)	> 10000	> 10000				
CC[C@H](C)[C@@H]1NC(=O)[C@@H]2CCCN2C(=O)[C@H](CO)NC(=O)[C@H](CCSC)NC(=O)[C@H](C)NC(=O)[C@H](CCCNC(=N)N)NC(=O)[C@H](CO)NC(=O)[C@@H]2CSSC[C@H](NC(=O)CN)C(=O)N[C@@H](CSSC[C@@H](C(N)=O)NC1=O)C(=O)N[C@@H](CO)C(=O)N[C@@H](Cc1c[nH]cn1)C(=O)N1CCC[C@H]1C(=O)N[C@@H](C(C)C)C(=O)N2 [TxID[10R]] (HELM PEPTIDE1{G.C.C.S.H.P.V.C.S.R.A.M.S.P.I.C.[am]}$PEPTIDE1,PEPTIDE1,2:R3-8:R3|PEPTIDE1,PEPTIDE1,3:R3-16:R3$$$V2.0)	> 10000	> 10000				
CC[C@H](C)[C@@H]1NC(=O)[C@H](CC(=O)O)NC(=O)[C@@H]2CCCN2C(=O)[C@H](CO)NC(=O)[C@H](CCSC)NC(=O)[C@H](C)NC(=O)[C@H](CO)NC(=O)[C@@H]2CSSC[C@H](NC(=O)CN)C(=O)N[C@@H](CSSC[C@@H](C(N)=O)NC1=O)C(=O)N[C@@H](CO)C(=O)N[C@@H](Cc1c[nH]cn1)C(=O)N1CCC[C@H]1C(=O)N[C@@H](C(C)C)C(=O)N2 [TxID[14D]] (HELM PEPTIDE1{G.C.C.S.H.P.V.C.S.A.M.S.P.D.I.C.[am]}$PEPTIDE1,PEPTIDE1,2:R3-8:R3|PEPTIDE1,PEPTIDE1,3:R3-16:R3$$$V2.0)	50.6	2260	14.1	44.7	66.6	IC50 (rat α6/α3β4 nAChR; α6/α3β4 IC50): 1000 to 10000 nM
CC[C@H](C)[C@@H]1NC(=O)[C@H](Cc2c[nH]cn2)NC(=O)[C@@H]2CCCN2C(=O)[C@H](CO)NC(=O)[C@H](CCSC)NC(=O)[C@H](C)NC(=O)[C@H](CO)NC(=O)[C@@H]2CSSC[C@H](NC(=O)CN)C(=O)N[C@@H](CSSC[C@@H](C(N)=O)NC1=O)C(=O)N[C@@H](CO)C(=O)N[C@@H](Cc1c[nH]cn1)C(=O)N1CCC[C@H]1C(=O)N[C@@H](C(C)C)C(=O)N2 [TxID[14H]] (HELM PEPTIDE1{G.C.C.S.H.P.V.C.S.A.M.S.P.H.I.C.[am]}$PEPTIDE1,PEPTIDE1,2:R3-8:R3|PEPTIDE1,PEPTIDE1,3:R3-16:R3$$$V2.0)	33	312	9.2	9.5	9.2	
CC[C@H](C)[C@@H]1NC(=O)[C@@H]2CCCN2C(=O)[C@H](CO)NC(=O)[C@H](CCSC)NC(=O)[C@H](C)NC(=O)[C@H](CO)NC(=O)[C@@H]2CSSC[C@H](NC(=O)[C@H](C)N)C(=O)N[C@@H](CSSC[C@@H](C(N)=O)NC1=O)C(=O)N[C@@H](CO)C(=O)N[C@@H](Cc1c[nH]cn1)C(=O)N1CCC[C@H]1C(=O)N[C@@H](C(C)C)C(=O)N2 [TxID[G1A]] (HELM PEPTIDE1{A.C.C.S.H.P.V.C.S.A.M.S.P.I.C.[am]}$PEPTIDE1,PEPTIDE1,2:R3-8:R3|PEPTIDE1,PEPTIDE1,3:R3-15:R3$$$V2.0)		100 to 1000				
CC[C@H](C)[C@@H]1NC(=O)[C@@H]2CCCN2C(=O)[C@H](CO)NC(=O)[C@H](CCSC)NC(=O)[C@H](C)NC(=O)[C@H](CO)NC(=O)[C@@H]2CSSC[C@H](NC(=O)CN)C(=O)N[C@@H](CSSC[C@@H](C(N)=O)NC1=O)C(=O)N[C@@H](CO)C(=O)N[C@@H](C)C(=O)N1CCC[C@H]1C(=O)N[C@@H](C(C)C)C(=O)N2 [TxID[H5A]] (HELM PEPTIDE1{G.C.C.S.A.P.V.C.S.A.M.S.P.I.C.[am]}$PEPTIDE1,PEPTIDE1,2:R3-8:R3|PEPTIDE1,PEPTIDE1,3:R3-15:R3$$$V2.0)	> 10000	> 10000				
CC[C@H](C)[C@@H]1NC(=O)[C@@H]2CCCN2C(=O)[C@H](CO)NC(=O)[C@H](CCSC)NC(=O)[C@H](C)NC(=O)[C@H](C)NC(=O)[C@@H]2CSSC[C@H](NC(=O)CN)C(=O)N[C@@H](CSSC[C@@H](C(N)=O)NC1=O)C(=O)N[C@@H](CO)C(=O)N[C@@H](Cc1c[nH]c3ccccc13)C(=O)N1CCC[C@H]1C(=O)N[C@@H](C(C)C)C(=O)N2 [TxID[H5W, S9A]] (HELM PEPTIDE1{G.C.C.S.W.P.V.C.A.A.M.S.P.I.C.[am]}$PEPTIDE1,PEPTIDE1,2:R3-8:R3|PEPTIDE1,PEPTIDE1,3:R3-15:R3$$$V2.0)	> 10000	> 10000				
CC[C@H](C)[C@@H]1NC(=O)[C@@H]2CCCN2C(=O)[C@H](CO)NC(=O)[C@H](CCSC)NC(=O)[C@H](C)NC(=O)[C@H](CO)NC(=O)[C@@H]2CSSC[C@H](NC(=O)CN)C(=O)N[C@@H](CSSC[C@@H](C(N)=O)NC1=O)C(=O)N[C@@H](CO)C(=O)N[C@@H](Cc1c[nH]c3ccccc13)C(=O)N1CCC[C@H]1C(=O)N[C@@H](C(C)C)C(=O)N2 [TxID[H5W]] (HELM PEPTIDE1{G.C.C.S.W.P.V.C.S.A.M.S.P.I.C.[am]}$PEPTIDE1,PEPTIDE1,2:R3-8:R3|PEPTIDE1,PEPTIDE1,3:R3-15:R3$$$V2.0)	> 10000	> 10000				
CSCC[C@@H]1NC(=O)[C@H](C)NC(=O)[C@H](CO)NC(=O)[C@@H]2CSSC[C@H](NC(=O)CN)C(=O)N[C@@H](CSSC[C@@H](C(N)=O)NC(=O)[C@H](C)NC(=O)[C@@H]3CCCN3C(=O)[C@H](CO)NC1=O)C(=O)N[C@@H](CO)C(=O)N[C@@H](Cc1c[nH]cn1)C(=O)N1CCC[C@H]1C(=O)N[C@@H](C(C)C)C(=O)N2 [TxID[I14A]] (HELM PEPTIDE1{G.C.C.S.H.P.V.C.S.A.M.S.P.A.C.[am]}$PEPTIDE1,PEPTIDE1,2:R3-8:R3|PEPTIDE1,PEPTIDE1,3:R3-15:R3$$$V2.0)	16.1	45.8	4.4	2.8	1.3	
CSCC[C@@H]1NC(=O)[C@H](C)NC(=O)[C@H](CO)NC(=O)[C@@H]2CSSC[C@H](NC(=O)CN)C(=O)N[C@@H](CSSC[C@@H](C(N)=O)NC(=O)[C@H](CC(=O)O)NC(=O)[C@@H]3CCCN3C(=O)[C@H](CO)NC1=O)C(=O)N[C@@H](CO)C(=O)N[C@@H](Cc1c[nH]cn1)C(=O)N1CCC[C@H]1C(=O)N[C@@H](C(C)C)C(=O)N2 [TxID[I14D]] (HELM PEPTIDE1{G.C.C.S.H.P.V.C.S.A.M.S.P.D.C.[am]}$PEPTIDE1,PEPTIDE1,2:R3-8:R3|PEPTIDE1,PEPTIDE1,3:R3-15:R3$$$V2.0)	9.8	40.8	2.7	4.2	1.2	
CSCC[C@@H]1NC(=O)[C@H](C)NC(=O)[C@H](CO)NC(=O)[C@@H]2CSSC[C@H](NC(=O)CN)C(=O)N[C@@H](CSSC[C@@H](C(N)=O)NC(=O)[C@H](CC(C)C)NC(=O)[C@@H]3CCCN3C(=O)[C@H](CO)NC1=O)C(=O)N[C@@H](CO)C(=O)N[C@@H](Cc1c[nH]cn1)C(=O)N1CCC[C@H]1C(=O)N[C@@H](C(C)C)C(=O)N2 [TxID[I14L]] (HELM PEPTIDE1{G.C.C.S.H.P.V.C.S.A.M.S.P.L.C.[am]}$PEPTIDE1,PEPTIDE1,2:R3-8:R3|PEPTIDE1,PEPTIDE1,3:R3-15:R3$$$V2.0)	9.98	29	2.8	2.9	0.9	
CSCC[C@@H]1NC(=O)[C@H](C)NC(=O)[C@H](CO)NC(=O)[C@@H]2CSSC[C@H](NC(=O)CN)C(=O)N[C@@H](CSSC[C@@H](C(N)=O)NC(=O)[C@H](CCCNC(=N)N)NC(=O)[C@@H]3CCCN3C(=O)[C@H](CO)NC1=O)C(=O)N[C@@H](CO)C(=O)N[C@@H](Cc1c[nH]cn1)C(=O)N1CCC[C@H]1C(=O)N[C@@H](C(C)C)C(=O)N2 [TxID[I14R]] (HELM PEPTIDE1{G.C.C.S.H.P.V.C.S.A.M.S.P.R.C.[am]}$PEPTIDE1,PEPTIDE1,2:R3-8:R3|PEPTIDE1,PEPTIDE1,3:R3-15:R3$$$V2.0)	9.2	67.4	2.5	7.3	2.0	
CC[C@H](C)[C@@H]1NC(=O)[C@H](C)NC(=O)[C@H](CO)NC(=O)[C@@H]2CSSC[C@H](NC(=O)CN)C(=O)N[C@@H](CSSC[C@@H](C(N)=O)NC(=O)[C@H]([C@@H](C)CC)NC(=O)[C@@H]3CCCN3C(=O)[C@H](CO)NC1=O)C(=O)N[C@@H](CO)C(=O)N[C@@H](Cc1c[nH]cn1)C(=O)N1CCC[C@H]1C(=O)N[C@@H](C(C)C)C(=O)N2 [TxID[M11I]] (HELM PEPTIDE1{G.C.C.S.H.P.V.C.S.A.I.S.P.I.C.[am]}$PEPTIDE1,PEPTIDE1,2:R3-8:R3|PEPTIDE1,PEPTIDE1,3:R3-15:R3$$$V2.0)						binding (blocking) activity to α6/α3β4 nAChR compared with wild type TxID (rat α6/α3β4 nAChR): not a decrease
CC[C@H](C)[C@@H]1NC(=O)[C@@H]2CCCN2C(=O)[C@H](CO)NC(=O)[C@H](CCSC)NC(=O)[C@H](C)NC(=O)[C@H](CC(=O)O)NC(=O)[C@@H]2CSSC[C@H](NC(=O)CN)C(=O)N[C@@H](CSSC[C@@H](C(N)=O)NC1=O)C(=O)N[C@@H](CO)C(=O)N[C@@H](Cc1c[nH]cn1)C(=O)N1CCC[C@H]1C(=O)N[C@@H](C(C)C)C(=O)N2 [TxID[S9D]] (HELM PEPTIDE1{G.C.C.S.H.P.V.C.D.A.M.S.P.I.C.[am]}$PEPTIDE1,PEPTIDE1,2:R3-8:R3|PEPTIDE1,PEPTIDE1,3:R3-15:R3$$$V2.0)						blocking effect on the current of rat α6/α3β4 nAChRs (rat α6/α3β4 nAChR): no blocking effect
